Data on 1 molecule can be found in patent publication US11559484B2, “Film formulations containing dexmedetomidine and methods of producing them” (BioXcel Therapeutics, Inc., priority 2018, dated 2023).

Where a name gives a salt, the structure may show the parent alone.

The conditions of data set [1]: IV infusion from 0.2 mcg/kg/hr, schizophrenia patients.
Description: All participants were screened for inclusion and exclusion criteria. The participants were admitted to the site at screening (Day −1), the day before the infusion. Baseline assessments were performed on Day −1, as well as on the day of infusion (Day 1). The participants were on Day 1 prepared for the infusion, infused for up to 3 hours and monitored for resolution of sedation and any decreases in blood pressure or heart rate which met stopping criteria. The participants were not discharged from the research unit until three hours after resolution of any reduction in the level of arousal (e.g., RASS −1) and/or resolution of any decrease in blood pressure or heart rate meeting stopping criteria.
Participants randomized to placebo received a matching intravenous infusion of placebo solution.
Once the participant was drowsy (RASS −1), the infusion was stopped. […]
(1) Richmond Agitation Sedation Scale (RASS): The desired endpoint was how rapidly drowsiness (RASS −1) could be achieved without causing changes in heart rate or blood pressure greater than that specified by the protocol. The study also monitored how long the participant remained at that level of sedation; sedation was considered resolved when the participant was awake and spontaneously responding.
The conditions of data set [2]: human, in vivo, iv.
The conditions of data set [3]: sublingual dose of 100 micrograms, human subjects; cited from earlier work.

For the molecule `Cc1cccc([C@H](C)c2cnc[nH]2)c1C` [dexmedetomidine hydrochloride, (+) 4-(S)-[1-(2,3-dimethylphenyl)ethyl]-1H-imidazole], in data set [1], the “patients in the treatment arm achieving a RASS score of at least −1” value is 9 out of 10. Moreover, the “Time to reach Cmax” value in data set [2] was in the range of 15 to 105 min. Further, the “patients in the treatment arm with agitation reduced to a minimum (PEC score of 7 or below)” value (IV infusion, schizophrenia patients) is recorded as 9 out of 10. Moreover, where the note is “IV route, schizophrenia”, the “subjects with >=50% reduction in PEC score” value is reported as 7 of 10. The hypotension post-administration entry in data set [3] was “Hypotension was observed”.
